Measured values reported in the supplement of paper PMC11451515.

Tested on: P12-Ichikawa
Assay: cell viability relative to DMSO control; higher = less cytotoxic
Conditions: 48 h
Method in brief: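 Viability, reported as a per-plate percentage of DMSO wells with cell-free wells as background, came from CellTiter-Glo One luminescence. Reading took place after 48 h at 37°C. Before that, NOMO1 or SEM (500 cells/well) or P12-Ichikawa (1000 cells/well) leukemia cells, adapted for at least four passages in each medium, were seeded in 1536-well plates (5 μl) and pin-dosed with library compounds in DMSO, 47 μM to 0.79 nM over 11 threefold points.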

[1] = HPLM + 10% dialyzed FBS, 0.000781 µM
[2] = HPLM + 10% dialyzed FBS, 0.00234 µM
[3] = HPLM + 10% dialyzed FBS, 0.00702 µM
[4] = HPLM + 10% dialyzed FBS, 0.0211 µM
[5] = HPLM + 10% dialyzed FBS, 0.0632 µM
[6] = HPLM + 10% dialyzed FBS, 0.19 µM
[7] = HPLM + 10% dialyzed FBS, 0.569 µM
[8] = HPLM + 10% dialyzed FBS, 1.71 µM
[9] = HPLM + 10% dialyzed FBS, 5.12 µM
[10] = HPLM + 10% dialyzed FBS, 15.4 µM
[11] = HPLM + 10% dialyzed FBS, 46.1 µM
[12] = RPMI 5 mM glucose + 10% FBS, 0.000781 µM
[13] = RPMI 5 mM glucose + 10% FBS, 0.00234 µM
[14] = RPMI 5 mM glucose + 10% FBS, 0.00702 µM
[15] = RPMI 5 mM glucose + 10% FBS, 0.0211 µM
[16] = RPMI 5 mM glucose + 10% FBS, 0.0632 µM
[17] = RPMI 5 mM glucose + 10% FBS, 0.19 µM
[18] = RPMI 5 mM glucose + 10% FBS, 0.569 µM
[19] = RPMI 5 mM glucose + 10% FBS, 1.71 µM
[20] = RPMI 5 mM glucose + 10% FBS, 5.12 µM
[21] = RPMI 5 mM glucose + 10% FBS, 15.4 µM
[22] = RPMI 5 mM glucose + 10% FBS, 46.1 µM
[23] = RPMI 5 mM glucose + 10% dialyzed FBS, 0.000781 µM
[24] = RPMI 5 mM glucose + 10% dialyzed FBS, 0.00234 µM
[25] = RPMI 5 mM glucose + 10% dialyzed FBS, 0.00702 µM
[26] = RPMI 5 mM glucose + 10% dialyzed FBS, 0.0211 µM
[27] = RPMI 5 mM glucose + 10% dialyzed FBS, 0.0632 µM
[28] = RPMI 5 mM glucose + 10% dialyzed FBS, 0.19 µM
[29] = RPMI 5 mM glucose + 10% dialyzed FBS, 0.569 µM
[30] = RPMI 5 mM glucose + 10% dialyzed FBS, 1.71 µM
[31] = RPMI 5 mM glucose + 10% dialyzed FBS, 5.12 µM
[32] = RPMI 5 mM glucose + 10% dialyzed FBS, 15.4 µM
[33] = RPMI 5 mM glucose + 10% dialyzed FBS, 46.1 µM

Row | Structure (SMILES) | cell viability [1] [%] | cell viability [2] [%] | cell viability [3] [%] | cell viability [4] [%] | cell viability [5] [%] | cell viability [6] [%] | cell viability [7] [%] | cell viability [8] [%] | cell viability [9] [%] | cell viability [10] [%] | cell viability [11] [%] | cell viability [12] [%] | cell viability [13] [%] | cell viability [14] [%] | cell viability [15] [%] | cell viability [16] [%] | cell viability [17] [%] | cell viability [18] [%] | cell viability [19] [%] | cell viability [20] [%] | cell viability [21] [%] | cell viability [22] [%] | cell viability [23] [%] | cell viability [24] [%] | cell viability [25] [%] | cell viability [26] [%] | cell viability [27] [%] | cell viability [28] [%] | cell viability [29] [%] | cell viability [30] [%] | cell viability [31] [%] | cell viability [32] [%] | cell viability [33] [%]
1 | OC[C@@H](O)[C@@H](O)[C@H](O)[C@@H](O)CO | 106 | 110 | 107 | 108 | 127 | 127 | 112 | 112 | 124 | 114 | 122 | 116 | 115 | 122 | 123 | 136 | 126 | 132 | 141 | 130 | 135 | 139 | 109 | 109 | 120 | 109 | 123 | 123 | 117 | 120 | 126 | 118 | 127
2 | CC(C)OC(=O)/C1=C/N(CC(C)(C)C2=C1[NH]C3=CC=CC=C23)C(=O)C4=CC=C(F)C(=C4)F | 83.2 | 84.5 | 82.2 | 89.6 | 89.4 | 83.4 | 86.4 | 83.9 | 87.8 | 91.6 | 95.7 | 79 | 78.7 | 79 | 79 | 83.4 | 83.9 | 84.9 | 82.9 | 87.2 | 84.1 | 83.8 | 75.3 | 77.3 | 78.1 | 85.2 | 78.5 | 80.7 | 75.9 | 75.7 | 78.4 | 73.7 | 82.4
3 | COc1cc(F)c(F)c(Nc2ccc(I)cc2F)c1N[S+](=O)([O-])C1(C[C@H](O)CO)CC1 | 114 | 107 | 110 | 116 | 111 | 112 | 110 | 108 | 106 | 89 | 42.7 | 110 | 123 | 128 | 113 | 112 | 104 | 115 | 118 | 115 | 96.4 | 74.8 | 123 | 120 | 126 | 118 | 116 | 104 | 118 | 122 | 123 | 97.3 | 58.2
4 | C[C@]12CCC(=O)C=C1CC[C@@H]1[C@@H]2[C@@H](O)C[C@@]2(C)[C@H]1CC[C@]2(O)C(=O)CO | 107 | 106 | 105 | 107 | 111 | 111 | 115 | 94.1 | 89.7 | 88.9 | 84.4 | 104 | 103 | 103 | 115 | 113 | 109 | 104 | 83.2 | 78.4 | 70.9 | 69.2 | 104 | 115 | 107 | 119 | 112 | 114 | 100 | 78.5 | 78.3 | 65.4 | 64.2
5 | CN[C@H]1CCC2=CC(=C(OC)C(=C2C/3=C/C=C(OC)\C(=O)/C=C13)OC)OC | 107 | 113 | 104 | 12.9 | 19.9 | 11.1 | 11.2 | 8.53 | 9.25 | 7.37 | 3.31 | 113 | 118 | 102 | 15.9 | 22.2 | 13.3 | 9.95 | 9.19 | 7.3 | 6.54 | 2.29 | 119 | 118 | 102 | 21.1 | 33.4 | 19 | 15.6 | 11.3 | 9.48 | 8.81 | 4.1
6 | C[C@](Cc1c[nH]c2ccccc12)(NC(=O)OC1C2CC3CC(C2)CC1C3)C(=O)NC[C@H](NC(=O)CCC(=O)O)c1ccccc1 (some centres not stated) | 112 | 129 | 125 | 130 | 131 | 128 | 138 | 132 | 122 | 129 | 122 | – | – | – | – | – | – | – | – | – | – | – | – | – | – | – | – | – | – | – | – | – | –
7 | CC1CNc2c(cccc2[S+](=O)([O-])N[C@@H](CCCNC(=N)N)C(=O)N2CC[C@@H](C)C[C@@H]2C(=O)O)C1 (some centres not stated) | 94.9 | 107 | 104 | 100 | 110 | 118 | 109 | 111 | 116 | 105 | 99.5 | 107 | 113 | 108 | 117 | 116 | 114 | 111 | 116 | 119 | 116 | 98.8 | 101 | 110 | 104 | 101 | 111 | 107 | 107 | 109 | 112 | 103 | 89.4
8 | CCN1CCN(c2ccc(Nc3cc(N(C)C(=O)Nc4c(Cl)c(OC)cc(OC)c4Cl)ncn3)cc2)CC1 | 107 | 109 | 103 | 108 | 106 | 97.8 | 97.4 | 105 | 77.7 | 73.3 | 35.3 | 115 | 114 | 119 | 124 | 118 | 118 | 113 | 115 | 86 | 76.7 | 47.6 | 114 | 112 | 108 | 124 | 114 | 126 | 111 | 110 | 76.8 | 66.8 | 53.2
